According to patent US20260193293A1, “PEPTIDES CAPABLE OF INHIBITING PROTEIN-PROTEIN INTERACTIONS AT GABAB1A SUBUNIT AND USES THEREOF” (UNIVERSITY OF COPENHAGEN, priority 2022, published 2026):
Read-outs that look alike come from different tables or passages of the source. Non-standard residues stand in square brackets, D forms with d. Residues, ends and D or L forms follow the SMILES beside them. 2Nal = N[C@@H](Cc1ccc2ccccc2c1)C(=O)O

How the values were obtained:
[1] = In vitro plasma stability; conditions: for remaining at 48 h, 100 µM / half-life: human; for remaining at 48 h, 100 µM / T1/2: human plasma; for half-life: plasma; for T1/2: 37° C.
Description: For time-course assay, 360 μL human plasma was pre-warmed up at 37° C. for 15 min and then spiked with 40 μL of tested peptides (1 mM in 1×PBS). […] Subsequently, 100 μL acetonitrile was added into and then samples were incubated overnight at −20° C. After that, all samples were centrifuged at 13,400 rpm for 10 min and the supernatant was filtered and then analyzed by LC-MS and UPLC (Waters). The area under the curve (AUC) was determined and normalized to the value of the first time point. The half-life (T1/2) was obtained by fitting the data to the one-phase decay equation in GraphPad Prism 9 and expressed as the mean of three individual experiments. For end-point assay, 108 μL human plasma was pre-warmed up at 37° C. for 15 min and then spiked with 12 μL of tested peptides (1 mM in 1×PBS).

[2] = molecular target: Sushi domains (SD1/2) protein; assay: Fluorescence polarization (FP) competition assay with AJAP-1probe, calculated Ki; type: binding
Procedure, shortened: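 Competition against 25 nM TAMRA-labelled peptide probe binding SD1/2, in PBS pH 7.4 with 1% BSA at rt, read at 530/580 nm. IC50 from sigmoidal dose-response fits, at least triplicate; Ki calculated from IC50 using probe Kd from saturation binding.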

[3] = CPP tagged peptides overview, SD1/2 binding affinity, mean ± SEM, n ≥ 3, read-out: Ki
[4] = Table 14, CPPs tagged peptides, read-out: Ki (nM) mean ± SEM
[5] = Table 1, affinity maturation, mean ± SEM, n ≥ 3, read-out: Ki

| remaining at 48 h, 100 µM [1] | half-life [1] | Ki [2, 3] | Ki [2, 4] | Compound | further results |
| --- | --- | --- | --- | --- | --- |
| ~50% | > 48 h | 107 ± 1 nM | 107 ± 2 nM | CC[C@H](C)[C@H](NC(=O)[C@H](Cc1c[nH]c2ccccc12)NC(=O)[C@H](CC(=O)O)NC(=O)[C@H](CC(=O)O)NC(=O)[C@H](CC(=O)O)NC(=O)[C@H](CCC(=O)O)NC(=O)[C@H](CCCNC(=N)N)NC(=O)[C@H](CCCNC(=N)N)NC(=O)[C@H](CCCNC(=N)N)NC(=O)[C@H](CCCNC(=N)N)NC(=O)[C@H](CCCNC(=N)N)NC(=O)[C@H](CCCNC(=N)N)NC(=O)[C@H](CCCNC(=N)N)NC(=O)[C@H](CCCNC(=N)N)NC(C)=O)C(=O)N[C@@H](CC(=O)O)C(=O)N[C@@H](Cc1c[nH]c2ccccc12)C(=O)N[C@@H](Cc1ccc(O)cc1)C(=O)N[C@@H](CC(=O)O)C(=O)N[C@@H](CO)C(=O)N[C@@H](CC(=O)O)C(=O)N[C@@H](CC(=O)O)C(=O)N[C@@H](CC(=O)O)C(N)=O [Peptide R8-16] (Ac-RRRRRRRREDDDWIDWYDSDDD-NH2) | – |
| ~80% | – | – | 6.4 ± 0.1 nM | CC[C@H](C)[C@H](NC(=O)[C@H](Cc1c[nH]c2ccccc12)NC(=O)[C@H](CC(=O)O)NC(=O)[C@H](CC(=O)O)NC(=O)[C@H](CC(=O)O)NC(=O)[C@H](CCC(=O)O)NC(=O)[C@H](CCCNC(=N)N)NC(=O)[C@H](CCCNC(=N)N)NC(=O)[C@H](CCCNC(=N)N)NC(C)=O)C(=O)N[C@@H](CC(=O)O)C(=O)N[C@@H](Cc1c[nH]c2ccccc12)C(=O)N[C@@H](Cc1ccc(O)cc1)C(=O)N[C@@H](CC(=O)O)C(=O)N[C@@H](CO)C(=O)N[C@@H](CC(=O)O)C(=O)N[C@@H](CC(=O)O)C(=O)N[C@@H](CC(=O)O)C(N)=O [Peptide R3-16] (Ac-RRREDDDWIDWYDSDDD-NH2) | – |
| – | > 48 h | 12 ± 1 nM | 15 ± 1 nM | CC[C@H](C)[C@H](NC(=O)[C@H](Cc1ccc2ccccc2c1)NC(=O)[C@H](CC(=O)O)NC(=O)[C@H](CC(=O)O)NC(=O)[C@H](CC(=O)O)NC(=O)[C@H](CCC(=O)O)NC(=O)[C@H](CCCNC(=N)N)NC(=O)[C@H](CCCNC(=N)N)NC(=O)[C@H](CCCNC(=N)N)NC(=O)[C@H](CCCNC(=N)N)NC(C)=O)C(=O)N[C@@H](CC(=O)O)C(=O)N[C@@H](Cc1c[nH]c2ccccc12)C(=O)N[C@@H](Cc1ccc(O)cc1)C(=O)N[C@@H](CC(=O)O)C(=O)N[C@@H](CO)C(=O)N[C@@H](CC(=O)O)C(=O)N[C@@H](CC(=O)O)C(=O)N[C@@H](CC(=O)O)C(N)=O [Peptide R4-20] (Ac-RRRREDDD[2Nal]IDWYDSDDD-NH2) | T1/2 [1]: >48 h; fold higher affinity than 4R-16 ([2]; 4R tagged peptides): about 2 fold |
| ~80% | – | – | 9 ± 0.2 nM | CC[C@H](C)[C@H](NC(=O)[C@H](Cc1c[nH]c2ccccc12)NC(=O)[C@H](CC(=O)O)NC(=O)[C@H](CC(=O)O)NC(=O)[C@H](CC(=O)O)NC(=O)[C@H](CCC(=O)O)NC(=O)[C@H](CCCNC(=N)N)NC(=O)[C@H](CCCNC(=N)N)NC(=O)[C@H](CCCNC(=N)N)NC(C)=O)C(=O)N[C@@H](CC(=O)O)C(=O)N[C@@H](Cc1c[nH]c2ccccc12)C(=O)NCC(=O)N1CCC[C@H]1C(=O)N[C@H](C(=O)N[C@@H](CO)C(=O)N[C@@H](CC(=O)O)C(=O)N[C@@H](CC(=O)O)C(=O)N[C@@H](CC(=O)O)C(N)=O)[C@@H](C)O [Peptide R3-17] (Ac-RRREDDDWIDWGPTSDDD-NH2) | – |
| – | > 48 h | 4 ± 0.3 nM | – | CC[C@H](C)[C@H](NC(=O)[C@H](Cc1c[nH]c2ccccc12)NC(=O)[C@H](CC(=O)O)NC(=O)[C@H](CC(=O)O)NC(=O)[C@H](CC(=O)O)NC(=O)[C@H](CCC(=O)O)NC(C)=O)C(=O)N[C@@H](CC(=O)O)C(=O)N[C@@H](Cc1c[nH]c2ccccc12)C(=O)NCC(=O)N1CCC[C@H]1C(=O)N[C@H](C(=O)N[C@@H](CO)C(=O)N[C@@H](CC(=O)O)C(=O)N[C@@H](CC(=O)O)C(=O)N[C@@H](CC(=O)O)C(N)=O)[C@@H](C)O [Peptide 17] (Ac-EDDDWIDWGPTSDDD-NH2) | Ki [2, 5]: 4 ± 0.3 nM; Ki ([2]; Table 13, peptides for affinity maturation, read-out: Ki (nM) mean ± SEM): 4 ± 0.3 nM |
| ~50% | > 48 h | 58 ± 3 nM | 58.1 ± 3 nM | CC[C@H](C)[C@H](NC(=O)[C@H](Cc1c[nH]c2ccccc12)NC(=O)[C@H](CC(=O)O)NC(=O)[C@H](CC(=O)O)NC(=O)[C@H](CC(=O)O)NC(=O)[C@H](CCC(=O)O)NC(=O)[C@H](CCCNC(=N)N)NC(=O)[C@H](CCCNC(=N)N)NC(=O)[C@H](CCCNC(=N)N)NC(=O)[C@H](CCCNC(=N)N)NC(=O)[C@H](CCCNC(=N)N)NC(=O)[C@H](CCCNC(=N)N)NC(=O)[C@H](CCCNC(=N)N)NC(=O)[C@H](CCCNC(=N)N)NC(C)=O)C(=O)N[C@@H](CC(=O)O)C(=O)N[C@@H](Cc1c[nH]c2ccccc12)C(=O)NCC(=O)N1CCC[C@H]1C(=O)N[C@H](C(=O)N[C@@H](CO)C(=O)N[C@@H](CC(=O)O)C(=O)N[C@@H](CC(=O)O)C(=O)N[C@@H](CC(=O)O)C(N)=O)[C@@H](C)O [Peptide R8-17] (Ac-RRRRRRRREDDDWIDWGPTSDDD-NH2) | – |
| – | 16 h | – | – | CC[C@H](C)[C@H](NC(=O)[C@H](C)NC(=O)[C@H](Cc1c[nH]c2ccccc12)NC(=O)[C@@H]1CCCN1C(C)=O)C(=O)N[C@H](C(=O)N[C@@H](Cc1c[nH]c2ccccc12)C(=O)NCC(=O)N1CCC[C@H]1C(=O)N[C@H](C(=O)N[C@H](C(=O)N[C@@H](CO)C(=O)N[C@@H](CCCNC(=N)N)C(=O)N[C@@H](CCC(=O)O)C(=O)N[C@@H](CC(=O)O)C(N)=O)C(C)C)[C@@H](C)O)C(C)C [PIANPWT, Ac-PWAIVWGPTVSRED-NH2] (Ac-PWAIVWGPTVSRED-NH2) | Ki ([2]; purified peptides, read-out: Ki): 476 ± 19 nM |
| – | > 48 h | 5.3 ± 0.2 nM | – | CC[C@H](C)[C@H](NC(=O)[C@H](Cc1ccc2ccccc2c1)NC(=O)[C@H](CC(=O)O)NC(=O)[C@H](CC(=O)O)NC(=O)[C@H](CC(=O)O)NC(=O)[C@H](CCC(=O)O)NC(C)=O)C(=O)N[C@@H](CC(=O)O)C(=O)N[C@@H](Cc1c[nH]c2ccccc12)C(=O)NCC(=O)N1CCC[C@H]1C(=O)N[C@H](C(=O)N[C@@H](CO)C(=O)N[C@@H](CC(=O)O)C(=O)N[C@@H](CC(=O)O)C(=O)N[C@@H](CC(=O)O)C(N)=O)[C@@H](C)O [Peptide 21] (Ac-EDDD[2Nal]IDWGPTSDDD-NH2) | Ki [2, 5]: 5.3 ± 0.2 nM; Ki ([2]; Table 16, ncAAs incorporated peptides, read-out: Ki (nM) mean ± SEM): 5.3 ± 0.2 nM |
| – | > 48 h | 13 ± 1 nM | 13 ± 1 nM | CC[C@H](C)[C@H](NC(=O)[C@H](Cc1ccc2ccccc2c1)NC(=O)[C@H](CC(=O)O)NC(=O)[C@H](CC(=O)O)NC(=O)[C@H](CC(=O)O)NC(=O)[C@H](CCC(=O)O)NC(=O)[C@H](CCCNC(=N)N)NC(=O)[C@H](CCCNC(=N)N)NC(=O)[C@H](CCCNC(=N)N)NC(=O)[C@H](CCCNC(=N)N)NC(C)=O)C(=O)N[C@@H](CC(=O)O)C(=O)N[C@@H](Cc1c[nH]c2ccccc12)C(=O)NCC(=O)N1CCC[C@H]1C(=O)N[C@H](C(=O)N[C@@H](CO)C(=O)N[C@@H](CC(=O)O)C(=O)N[C@@H](CC(=O)O)C(=O)N[C@@H](CC(=O)O)C(N)=O)[C@@H](C)O [Peptide R4-21] (Ac-RRRREDDD[2Nal]IDWGPTSDDD-NH2) | T1/2 [1]: >48 h |
| – | – | 280 ± 2 nM | 280 ± 2 nM | CC[C@H](C)[C@H](NC(=O)[C@H](Cc1c[nH]c2ccccc12)NC(=O)[C@H](CC(=O)O)NC(=O)[C@H](CC(=O)O)NC(=O)[C@H](CC(=O)O)NC(=O)[C@H](CCC(=O)O)NC(=O)[C@H](CO)NC(=O)CNC(=O)CNC(=O)CNC(=O)CNC(=O)[C@H](CCCNC(=N)N)NC(=O)[C@H](CCCNC(=N)N)NC(=O)[C@H](CCCNC(=N)N)NC(=O)[C@H](CCCNC(=N)N)NC(=O)[C@H](CCCNC(=N)N)NC(=O)[C@H](CCCNC(=N)N)NC(=O)[C@H](CCCNC(=N)N)NC(=O)[C@H](CCCNC(=N)N)NC(C)=O)C(=O)N[C@@H](CC(=O)O)C(=O)N[C@@H](Cc1c[nH]c2ccccc12)C(=O)N[C@@H](Cc1ccc(O)cc1)C(=O)N[C@@H](CC(=O)O)C(=O)N[C@@H](CO)C(=O)N[C@@H](CC(=O)O)C(=O)N[C@@H](CC(=O)O)C(=O)N[C@@H](CC(=O)O)C(N)=O [Peptide R8-FL-16] (Ac-RRRRRRRRGGGGSEDDDWIDWYDSDDD-NH2) | – |
| – | – | – | – | CC[C@H](C)[C@H](NC(=O)[C@H](Cc1ccccc1)NC(=O)[C@H](CCC(=O)O)NC(=O)[C@@H](NC(=O)[C@H](CCC(=O)O)NC(=O)[C@@H](NC(C)=O)[C@@H](C)O)[C@@H](C)O)C(=O)N[C@@H](C)C(=O)N[C@@H](Cc1c[nH]c2ccccc12)C(=O)NCC(=O)N1CCC[C@H]1C(=O)N[C@H](C(=O)NCC(=O)N[C@@H](CC(=O)O)C(=O)N[C@@H](CCC(=O)O)C(=O)N[C@@H](CC(=O)O)C(=O)N[C@@H](C)C(=O)N[C@@H](CC(C)C)C(N)=O)[C@@H](C)O (Ac-TETEFIAWGPTGDEDAL-NH2) | Ki ([2]; Table 5, elongation and truncation scan of AJAP-1 binding epitope, read-out: Ki (nM) mean ± SEM): 47 ± 2 nM |
| – | – | – | – | CC(=O)N[C@@H](CCC(=O)O)C(=O)N[C@@H](CC(=O)O)C(=O)N[C@@H](C)C(=O)N[C@@H](CO)C(=O)N[C@@H](CC(=O)O)C(=O)N[C@H](C(=O)N[C@@H](Cc1c[nH]c2ccccc12)C(=O)N[C@@H](Cc1c[nH]c2ccccc12)C(=O)NCC(=O)NCC(=O)N[C@@H](C)C(=O)N[C@@H](CC(=O)O)C(=O)N[C@H](C(=O)N[C@@H](CC(=O)O)C(N)=O)[C@@H](C)O)C(C)C (Ac-EDASDVWWGGADTD-NH2) | Ki ([2]; Table 7, Ala-, D-amino acids and N-methylation scans of APPWT, read-out: Ki (nM) mean ± SEM): 1830 ± 54 nM |
| – | – | – | – | CC[C@H](C)[C@H](NC(=O)[C@H](Cc1ccccc1)NC(=O)[C@H](CCC(=O)O)NC(=O)[C@@H](NC(=O)[C@H](CCC(=O)O)NC(C)=O)[C@@H](C)O)C(=O)N[C@H](C(=O)N[C@@H](Cc1c[nH]c2ccccc12)C(=O)NCC(=O)N1CCC[C@H]1C(=O)N[C@H](C(=O)NCC(=O)N[C@@H](CC(=O)O)C(=O)N[C@@H](CCC(=O)O)C(=O)N[C@@H](CC(=O)O)C(N)=O)[C@@H](C)O)C(C)C [ETEFIVWGPTGDED] (Ac-ETEFIVWGPTGDED-NH2) | Ki ([2]; Table 11, deep mutational scanning validation variants of AJAP-1WT, read-out: Ki (nM) mean ± SEM): 30 ± 1 nM |
